Test results published in paper PMC10363774 (RSC Advances, 2023).

Legend:
[1] = system: HCT-116 cells (colon cancer); test: MTT anti-proliferative assay, HCT-116; assay type: cell-based; conditions: Homo sapiens, HCT-116, 48 h, read-out: In vitro cytotoxicity IC50 HCT 116
[2] = system: MCF-7 cells (breast cancer); test: MTT anti-proliferative assay, MCF-7; assay type: cell-based; conditions: Homo sapiens, MCF7, 48 h, read-out: In vitro cytotoxicity IC50 MCF-7
IL-6 = test: In vitro immunomodulatory assay, IL-6; assay type: cell-based, human; conditions: HCT-116 cells, 24 h, at the IC50 concentration

Row | Compound | IC50 [1] [µM] | IC50 [2] [µM] | Pro-inflammatory factors inhibition IL-6 (IL-6) [pg per mL %]
1 | CNC(=O)c1cc(Oc2ccc(NC(=O)Nc3ccc(Cl)c(C(F)(F)F)c3)cc2)ccn1 [Sorafenib] | 8.96 ± 0.05 | 11.83 ± 0.07 | –
2 | C[C@@H]1C[C@H]2[C@@H]3CCC4=CC(=O)C=C[C@]4(C)[C@@]3(F)[C@@H](O)C[C@]2(C)[C@@]1(O)C(=O)CO [Dexamethasone] | – | – | 93.15
